Reference: patent US20250115563A1, “MODULATORS OF THE INTEGRATED STRESS PATHWAY” (Calico Life Sciences LLC, priority 2017, published 2025)

Tested on: HEK293T cells carrying the ATF4 luciferase reporter
Experiment: ATF4-Luc assay (in vitro model of VWMD)
Type: cell-based
Settings: Homo sapiens, HEK-293T; HEK293T cells with ATF4 5'-UTR firefly luciferase reporter; 1 μg/mL tunicamycin; 7 hours; One Glo luminescence
Protocol: In order to test exemplary compounds of the invention in a cellular context, a stable VWMD cell line was first constructed. The ATF4 reporter was prepared by fusing the human full-length ATF4 5′-UTR (NCBI Accession No. BC022088.2) in front of the firefly luciferase (FLuc) coding sequence lacking the initiator methionine as described in Sidrauski et al (eLife 2013). The construct was used to produce recombinant retroviruses using standard methods and the resulting viral supernatant was used to transduce HEK293T cells, which were then subsequently selected with puromycin to generate a stable cell line.
HEK293T cells carrying the ATF4 luciferase reporter were plated on polylysine coated 384-well plates (Greiner Bio-one) at 30,000 cells per well. Cells were treated the next day with 1 μg/mL tunicamycin and 200 nM of a compound of Formula (I) for 7 hours. Luminescence was measured using One Glo (Promega) as specified by the manufacturer. Cells were maintained in DMEM with L-glutamine supplemented with 10% heat-inactivated FBS (Gibco) and Antibiotic-Antimycotic solution (Gibco).
Table 2 below summarizes the EC50 data obtained using the ATF4-Luc assay for exemplary compounds of the invention.

SMILES | EC50 [nM]
O=C(COc1ccc(Cl)c(F)c1)NC12CCC(c3nnc(Oc4ccc(Cl)c(F)c4)o3)(CC1)C(O)C2 (stereo not drawn) [Compound 170, 2-(4-chloro-3-fluorophenoxy)-N-{4-[5-(4-chloro-3-fluorophenoxy)-1,3,4-oxadiazol-2-yl]-3-hydroxybicyclo[2.2.2]octan-1-yl}acetamide] | < 50
O=C(COc1ccc(Cl)c(F)c1)NC12CCC(c3nnc(Oc4ccc(Cl)c(F)c4)o3)(CC1)[C@@H](O)C2 [Compound 172, 2-(4-chloro-3-fluorophenoxy)-N-{(3S)-4-[5-(4-chloro-3-fluorophenoxy)-1,3,4-oxadiazol-2-yl]-3-hydroxybicyclo[2.2.2]octan-1-yl}acetamide] | < 50
O=C(COc1ccc(Cl)c(F)c1)NC12CCC(c3nnc(Oc4ccc(Cl)c(F)c4)o3)(CC1)[C@H](O)C2 [Compound 171, 2-(4-chloro-3-fluorophenoxy)-N-{(3R)-4-[5-(4-chloro-3-fluorophenoxy)-1,3,4-oxadiazol-2-yl]-3-hydroxybicyclo[2.2.2]octan-1-yl}acetamide] | < 50
